US20160208016A1, “Anti-ADAM12 antibodies for the treatment of cancer” (UNIVERSITY OF COPENHAGEN, priority 2013, published 2016)

Key:
MCF7-A12Δcyt cells = experiment: Type I collagen-induced apoptosis in 3-D collagen cultures, MCF7-A12Δcyt; assay type: cell-based, human; conditions: 10 μM GM6001 every second day
Method: (§1) (A) MCF7, MCF7-A12Δcyt, and MCF7-A12Δcyt+dox cell lines were embedded in 3-D collagen and the mean percentage of apoptotic bodies (±s.d.) was determined from >500 cells per experiment. (B) Western blot analysis of ADAM12, MMP-14, BIK, and BIM from cells recovered from 3-D collagen. The bar graph depicts levels of BIK and BIM; determined by quantification of the band intensities (using ImageJ software) and normalized to actin. The MCF7 level was set to 1. (C,D) Mean percentage of apoptotic bodies (±s.d.) from >500 cells of 3-D collagen cultures of MCF7, MCF7-A12Δcyt, and MCF7-A12Δcyt+dox (C) and MDA-MB-231. (D) Cells treated every second day with control mouse IgG, 10 μg/ml 8F8, or 10 μM GM6001. (E) Western blot of cells recovered from 3-D cultures of MDA-MB-231 cells analyzed for MMP-14 after siRNA treatment. […]
(§2) (A) A representative micrograph of MCF7-A12Δcyt+dox cells extracted from 3-D cultures and stained with DAPI. Apoptosis was evaluated by counting the percentage of the number of cells with chromatin condensation and nuclear fragmentation (arrow=apoptotic bodies). […]
(§3) Cells were seeded on dishes coated with gelatin (10 μg/ml) coupled to Oregon Green® 488 dye (G-13186) from Molecular Probes (Life Technologies, Naerum, Denmark). […] For each experiment more than 1000 cells were counted and same type of experiment was repeated independently at least three times. […]

MDA-MB-231 cells = experiment: Apoptosis in 3-D collagen cultures, MDA-MB-231; assay type: cell-based, human; conditions: 10 μg/ml 8F8 or 10 μM GM6001 every second day, compared with control cells
Method: as §1, §2, §3

wild-type MCF7 cells = experiment: Type I collagen-induced apoptosis in 3-D collagen cultures, wild-type MCF7; assay type: cell-based, human; conditions: 10 μg/ml 8F8 or 10 μM GM6001 every second day
Method: as §1, §2, §3

[1] = test system: 293-VnR cells transfected with ADAM12Δcyt; experiment: In situ solid-phase gelatinase assay, 293-VnR cells transfected with ADAM12Δcyt; assay type: cell-based, human; conditions: 10 μM overnight vs vehicle only
Method: Data are expressed as the mean gelatin degradation (±s.d.) relative to the mean ADAM12Δcyt degradation value (set at 100%). (B) In situ solid-phase gelatinase assay of 293-VnR cells transfected with ADAM12Δcyt or control vector and treated with GM6001 (10 μM), TAPI-2 (10 μM), or vehicle only (control) overnight. Cells were stained for ADAM12 and for the nucleus (DAPI). The mean number of gelatin-degrading ADAM12-positive cells (±s.d.) is presented as a percentage of the total number of ADAM12-positive cells. (C) In situ solid-phase gelatinase assay of 293-VnR cells cotransfected with ADAM12Δcyt and control or MMP-14 siRNA. Mean data (±s.d.) are expressed relative to the mean siRNA control degradation value (set at 100%). Inset, Western blots of total cell lysates analyzed for MMP-14. […] Gelatin degradation was quantified by measuring the degraded area in μm^2 and correlated to the number of cells. […]
(A) In situ solid-phase gelatinase assay of HEK293 cells transfected with ADAM12Δcyt and immunostained for ADAM12, and DAPI staining. […] Precipitates and input samples were analysed by Western blotting with indicated antibodies. […] (E) Mean percentage cell-surface staining of αVβ3 integrin (LM609 antibody staining) for MCF7, MCF7-A12Δcyt, MCF7-A12Δcyt+dox, and MDA-MB-231 cell lines analyzed by FACS. […]

MCF7-A12Δcyt+dox cells = experiment: Type I collagen-induced apoptosis in 3-D collagen cultures, MCF7-A12Δcyt+dox; assay type: cell-based, human; conditions: 10 μg/ml 8F8 or 10 μM GM6001 every second day
Method: as §1, §2, §3

αVβ3 integrin = αVβ3 integrin (UniProt P06756); experiment: cell-based or functional assay
Sequence of UniProt P06756 (P06756 31-1048, chain 1 of 2): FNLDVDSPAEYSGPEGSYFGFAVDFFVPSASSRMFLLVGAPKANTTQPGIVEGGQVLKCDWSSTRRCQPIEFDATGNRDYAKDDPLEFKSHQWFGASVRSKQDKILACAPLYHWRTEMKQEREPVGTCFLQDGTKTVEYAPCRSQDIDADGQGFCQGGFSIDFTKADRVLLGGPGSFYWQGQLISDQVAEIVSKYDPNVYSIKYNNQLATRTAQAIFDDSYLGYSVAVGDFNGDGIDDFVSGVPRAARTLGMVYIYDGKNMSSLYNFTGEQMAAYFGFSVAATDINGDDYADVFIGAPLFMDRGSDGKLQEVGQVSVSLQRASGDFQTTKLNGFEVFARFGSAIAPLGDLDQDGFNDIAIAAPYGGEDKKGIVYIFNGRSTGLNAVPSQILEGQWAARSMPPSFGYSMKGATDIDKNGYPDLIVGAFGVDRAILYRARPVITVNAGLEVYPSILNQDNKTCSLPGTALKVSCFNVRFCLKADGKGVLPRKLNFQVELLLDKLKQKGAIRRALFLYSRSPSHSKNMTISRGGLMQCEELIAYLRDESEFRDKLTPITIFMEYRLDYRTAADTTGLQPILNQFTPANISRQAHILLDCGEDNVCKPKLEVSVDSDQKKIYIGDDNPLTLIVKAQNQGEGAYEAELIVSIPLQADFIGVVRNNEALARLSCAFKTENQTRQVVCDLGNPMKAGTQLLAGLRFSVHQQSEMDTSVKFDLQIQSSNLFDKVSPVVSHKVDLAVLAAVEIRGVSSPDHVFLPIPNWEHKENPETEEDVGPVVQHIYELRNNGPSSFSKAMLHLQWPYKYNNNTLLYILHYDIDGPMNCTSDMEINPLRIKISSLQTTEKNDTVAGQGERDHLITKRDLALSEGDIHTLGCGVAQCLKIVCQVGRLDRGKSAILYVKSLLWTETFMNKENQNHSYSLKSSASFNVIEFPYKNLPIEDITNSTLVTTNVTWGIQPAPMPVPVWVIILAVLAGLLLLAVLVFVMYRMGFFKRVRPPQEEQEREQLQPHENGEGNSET
Sequence of UniProt P06756 (P05106 27-788, chain 2 of 2, further chain): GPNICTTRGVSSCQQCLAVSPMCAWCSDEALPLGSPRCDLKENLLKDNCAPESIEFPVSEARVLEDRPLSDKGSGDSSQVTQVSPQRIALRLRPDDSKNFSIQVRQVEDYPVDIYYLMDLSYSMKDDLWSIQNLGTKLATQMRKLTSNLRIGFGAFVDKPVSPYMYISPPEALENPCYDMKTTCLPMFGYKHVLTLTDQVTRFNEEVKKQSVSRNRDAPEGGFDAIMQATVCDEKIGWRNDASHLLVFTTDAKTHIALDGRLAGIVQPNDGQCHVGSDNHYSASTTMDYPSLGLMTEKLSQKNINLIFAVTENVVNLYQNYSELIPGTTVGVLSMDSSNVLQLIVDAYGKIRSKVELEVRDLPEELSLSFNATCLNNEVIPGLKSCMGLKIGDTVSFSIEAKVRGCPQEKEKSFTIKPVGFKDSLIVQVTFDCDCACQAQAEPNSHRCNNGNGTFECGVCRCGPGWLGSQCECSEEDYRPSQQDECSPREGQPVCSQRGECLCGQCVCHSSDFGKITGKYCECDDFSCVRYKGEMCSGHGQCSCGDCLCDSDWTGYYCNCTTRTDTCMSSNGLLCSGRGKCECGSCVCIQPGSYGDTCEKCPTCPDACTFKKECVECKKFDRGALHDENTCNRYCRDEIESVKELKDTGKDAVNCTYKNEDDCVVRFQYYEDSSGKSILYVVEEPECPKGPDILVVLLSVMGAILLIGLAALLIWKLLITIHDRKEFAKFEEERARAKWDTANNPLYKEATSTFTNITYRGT

Row | Molecule | fraction of apoptotic bodies (MCF7-A12Δcyt cells) | levels of apoptotic bodies (MDA-MB-231 cells) | effect on apoptosis (apoptotic bodies, ApopTag) (wild-type MCF7 cells) | gelatin degradation [1] | effect on apoptosis (apoptotic bodies, ApopTag) (MCF7-A12Δcyt+dox cells) | reduction of gelatin degradation in MCF7-A12Δcyt cell cultures (αVβ3 integrin) [%]
1 | CNC(=O)[C@H](Cc1c[nH]c2ccccc12)NC(=O)[C@@H](CC(=O)NO)CC(C)C [GM6001] | significantly increased | significantly increased | no effects | significant reduction | no effects | –
2 | CC(C)C[C@H](CC(=O)NO)C(=O)N[C@H](C(=O)N[C@@H](C)C(=O)NCCN)C(C)(C)C [TAPI-2] | – | – | – | significant reduction | – | –
3 | mouse monoclonal antibody LM609 against αVβ3 integrin (Chemicon/Millipore) | – | – | – | – | – | 80
